In ChEMBL document CHEMBL1123576 one finds Ratio data, which are given here for 2 compounds.

The target in test [1] is T1, Opioid receptors; mu/kappa/delta (Homo sapiens) (UniProt P41145+P41143+P35372). Kind of test: The IC50 value of agonist (DADLE) in presence of antagonist (Compound 20 nM) divided by the control […] value with no antagonist in MVD (mouse vas deferens). Type of test: functional. As to conditions: Cavia porcellus.
In test [2] the target is T1, Opioid receptors; mu/kappa/delta (Homo sapiens). Kind of test: The IC50 value of agonist (ethylketazocine) in presence of antagonist (Compound 20 nM) divided by the control […] value with no antagonist in GPI (Guinea pig ileum). It is filed as functional, tissue-based. The note with it: Cavia porcellus, target entry is the homologue from another species.
Test [3] shares this target. Kind of test: The IC50 value of agonist (morphine) in presence of antagonist (Compound 20 nM) divided by the control […] value with no antagonist in GPI (Guinea pig ileum). Type of test: functional, tissue-based. The note with it: Cavia porcellus, target entry is the homologue from another species.

T1 sequence (P35372 whole entry, looked up): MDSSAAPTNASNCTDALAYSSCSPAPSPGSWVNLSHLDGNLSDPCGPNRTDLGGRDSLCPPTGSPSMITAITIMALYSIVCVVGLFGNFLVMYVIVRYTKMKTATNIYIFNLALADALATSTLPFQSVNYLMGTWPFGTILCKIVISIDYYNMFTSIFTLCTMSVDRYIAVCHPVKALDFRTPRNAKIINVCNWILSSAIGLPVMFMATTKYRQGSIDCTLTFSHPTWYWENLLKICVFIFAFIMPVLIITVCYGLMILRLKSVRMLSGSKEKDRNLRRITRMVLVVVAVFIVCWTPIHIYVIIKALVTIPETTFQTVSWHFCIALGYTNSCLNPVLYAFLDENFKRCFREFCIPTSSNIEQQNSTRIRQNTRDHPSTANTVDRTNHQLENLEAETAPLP
T1 sequence (P41143 whole entry, looked up): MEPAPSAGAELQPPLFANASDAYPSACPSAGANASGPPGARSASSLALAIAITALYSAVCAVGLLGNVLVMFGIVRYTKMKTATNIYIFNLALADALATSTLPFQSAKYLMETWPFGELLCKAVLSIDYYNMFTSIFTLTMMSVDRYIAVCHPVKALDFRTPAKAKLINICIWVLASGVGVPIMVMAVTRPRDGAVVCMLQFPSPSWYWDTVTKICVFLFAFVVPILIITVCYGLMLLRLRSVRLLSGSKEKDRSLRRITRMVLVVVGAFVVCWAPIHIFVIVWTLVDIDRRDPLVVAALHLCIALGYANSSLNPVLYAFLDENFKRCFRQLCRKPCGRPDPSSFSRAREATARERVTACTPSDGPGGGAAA
T1 sequence (P41145 whole entry, looked up): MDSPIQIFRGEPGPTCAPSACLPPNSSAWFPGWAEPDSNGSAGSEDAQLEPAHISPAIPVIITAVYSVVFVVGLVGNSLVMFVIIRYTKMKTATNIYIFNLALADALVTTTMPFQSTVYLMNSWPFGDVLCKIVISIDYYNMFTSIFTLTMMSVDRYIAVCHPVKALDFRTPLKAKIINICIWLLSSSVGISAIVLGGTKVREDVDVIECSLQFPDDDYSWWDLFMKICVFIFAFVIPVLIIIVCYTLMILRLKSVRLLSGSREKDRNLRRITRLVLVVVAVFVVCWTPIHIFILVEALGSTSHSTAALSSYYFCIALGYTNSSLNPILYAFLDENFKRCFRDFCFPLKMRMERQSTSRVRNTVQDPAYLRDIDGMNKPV

With `Oc1ccc2c3c1O[C@@H]1c4[nH]c5c(c4CC4(O)[C@@H](C2)N(CC2CC2)CC[C@]314)CC1(O)[C@H]2Cc3ccc(O)c4c3[C@]1(CCN2CC1CC1)[C@H]5O4` (stereo partly specified), the results for the Ratio in test [1], in test [2] and in test [3] were 2, 50.4 and 1.6, respectively.

With `Cn1c2c(c3c1[C@@H]1Oc4c(O)ccc5c4[C@@]14CCN(CC1CC1)[C@H](C5)C4(O)C3)CC1(O)[C@H]3Cc4ccc(O)c5c4[C@@]1(CCN3CC1CC1)[C@H]2O5` (stereo partly specified), the values for the Ratio in test [1], in test [2] and in test [3] were 4.5, 128 and 5.4, respectively.
